Assays:
p-NF-κB = assay: Western blot of p-NF-κB in BV2 cells with oxaliplatin-induced inflammatory response; format: cell-based
Protocol: (§1) BV2 cell lines (microglia) were cultured in Dulbecco's modified Eagle's medium (DMEM; GIBCO, Grand Island, NY, USA) containing 10% fetal bovine serum (FBS; GIBCO) and 1% penicillin in a 5% CO2 incubator (37° C.). […]
(§2) Thereafter, proteins were isolated from the cells of each treatment group. […] The isolated proteins were quantified for each subject by using the Bradford (Bio-rad, USA) method using bovine serum albumin (BSA, Sigma, USA), and then 20 μg of the proteins were separated by 10% sodium dodecyl sulfate—polyacrylamide gel electrophoresis (SDS-PAGE) and transferred to polyvinylidene difluoride (PVDF) membranes (membrane, Gendepot, UK). […] The protein identification and quantitative analysis were performed using an imaging system (ChemiDoc XRS+ System, Bio-Rad).
(§3) All of the results were analyzed using the SPSS 21.0 package (SPSS Inc., Chicago, USA), and the experimental results were presented as the mean±standard deviation values. Statistical significance was validated using one-way analysis of variance (ANOVA) and then analyzed by Fisher's LSD test, and the significance probability value (p-value) was recognized only when p<0.05 and p<0.01.

iNOS = assay: Western blot of iNOS in BV2 cells with oxaliplatin-induced inflammatory response; format: cell-based
Protocol: as §1, §2, §3

p-ERK MAPK = assay: Western blot of p-ERK in BV2 cells with oxaliplatin-induced inflammatory response; format: cell-based
Protocol: as §1, §2, §3

[1] = system: peripheral nerve injury (PNL)-induced neuropathic pain animal models; assay: Mechanical pain (von Frey filament) in peripheral nerve injury (partial sciatic nerve ligation, PNL)-induced neuropathic pain models; format: in vivo, c57/bl6 male mice; settings: 10 mg/kg oral, PNL mice
Protocol: (§4) The behavior of withdrawal to a stimulus using a 0.4 g von Frey filament (Touch test 3.61, Stoelting, USA), which causes mechanical allodynia in the oxaliplatin-induced neuropathic pain animal models, was recorded and observed. To measure the withdrawal response of the paws in the animal models, the animals were put in a transparent acrylic box (7 cm×10 cm) placed on a wire mesh with a grid size of 5 mm and given time to acclimate to the environment. After about 1 hour, the acclimation of the mice was checked, and the medial part of the affected paw was stimulated with the quantified von Frey filament through a wire mesh grid. A total of 10 stimulations sufficient to slightly bend the von Frey filament were given at intervals of 20 seconds, and the number of withdrawals was measured.
After twelve 5-week-old c57/bl6 male mice were respiratory anesthetized with 2.5% isoflurane, the skin on the posterior side of the right hip joint was shaved and incised, and then the sciatic nerve between the biceps femoris was found and confirmed. Thereafter, the […] was penetrated and ligated by a 7 m/m (⅜) silk thread, and then the cut skin was sutured. […]

[2] = system: paclitaxel-induced neuropathic pain animal models; assay: Cold allodynia (acetone test) in paclitaxel-induced neuropathic pain animal models; format: in vivo, c57/bl6 male mice; settings: 10 mg/kg oral, 1 hour after administration, day 14 after first paclitaxel injection, acetone to rear paws
Protocol: Paclitaxel (Sigma-Aldrich) dissolved in a 1:1 solution of Cremophor EL and ethanol at 6 mg/mL was diluted to a concentration of 0.2 mg/mL, and 2 mg/kg of the diluent was intraperitoneally administered to ten 6-week-old c57/bl6 male mice four times. Injections were conducted on days 0, 2, 4, and 6 at intervals of every other day. A significant pain was observed from about 10 days after the first injection. In the paclitaxel-induced neuropathic pain animal models, the response occurring after about 20 μL of acetone was applied to both rear paws of the animal models to cause cold allodynia was observed and recorded for about 15 seconds. The behaviors of withdrawal, shaking, and licking of the paws were observed and recorded. A total of three repeated trials were performed, and the average number of behaviors recorded was checked. On the 14th day after the first injection of paclitaxel, animal models showing a statistically significant level of pain were divided into a drug group administered 10 mg/kg of syringaresinol (syringaresinol, n=5) and a control group orally administered 0.06% Tween 80 (vehicle, n=5), and then were administered the corresponding drugs to thereby cause cold allodynia after 1 hour.

[3] = system: oxaliplatin-induced neuropathic pain animal models; assay: Mechanical allodynia (von Frey filament) in oxaliplatin-induced neuropathic pain animal models; format: in vivo, c57/bl6 male mice; settings: 10 mg/kg oral, 1 hour after administration, day 3 after oxaliplatin injection, 0.4 g von Frey filament
Protocol: (§5) Oxaliplatin (Sigma-Aldrich) dissolved in a 5% glucose solution to 2 mg/mL was single-intraperitoneally administered at 6 mg/kg to twelve 5-week-old c57/bl6 male mice. Significant pain was observed from about 3 days after the first injection.
as §4, with “measured. […]” for “measured.”

[4] = system: oxaliplatin-induced neuropathic pain animal models; assay: Cold allodynia (acetone test) in oxaliplatin-induced neuropathic pain animal models; format: in vivo, c57/bl6 male mice; settings: 10 mg/kg oral, 1 hour after administration, day 3 after oxaliplatin injection, acetone to rear paws
Protocol: In the paclitaxel-induced neuropathic pain animal models, the response occurring after about 20 μL of acetone was applied to both rear paws of the animal models to cause cold allodynia was observed and recorded for about 15 seconds. The behaviors of withdrawal, shaking, and licking of the paws were observed and recorded. A total of three repeated trials were performed, and the average number of behaviors recorded was checked.
as §5
Cold allodynia was caused in the oxaliplatin-induced neuropathic pain animal models by way of the method in Example 2.
On the 3rd day after the oxaliplatin injection, animal models showing a statistically significant level of pain were divided into a drug group administered 10 mg/kg syringaresinol (syringaresinol, n=6) and a control group orally administered 0.06% Tween 80 (vehicle, n=6), and then were administered the corresponding drugs to thereby cause cold allodynia and mechanical allodynia after 1 hour.

[5] = BV2 cells stimulated with 1 μg/mL oxaliplatin for 3 hours, versus normal control
[6] = BV2 cells, syringaresinol 10 μg/mL and 100 μg/mL for 1 hour, then 1 μg/mL oxaliplatin for 3 hours

SMILES	protein expression level of p-NF-κB (p-NF-κB; [5])	protein expression of iNOS (iNOS; [5])	protein expression level of p-ERK MAPK (p-ERK MAPK; [5])	oxaliplatin-induced increase of p-NF-κB protein expression (p-NF-κB; [6])	mechanical pain compared with the control group (vehicle) [1]	oxaliplatin-induced increase of iNOS protein expression (iNOS; [6])	oxaliplatin-induced increase of p-ERK MAPK protein expression (p-ERK MAPK; [6])	cold allodynia compared with the control group (vehicle) [2]	mechanical allodynia compared with the control group (vehicle) [3]	cold allodynia compared with the control group (vehicle) [4]
O=C1[O][Pt]2([NH][C@@H]3CCCC[C@H]3[NH]2)[O]C1=O [oxaliplatin, reference compound]	significantly increased	significantly increased	significantly increased							
COc1cc(C2OCC3C(c4cc(OC)c(O)c(OC)c4)OCC23)cc(OC)c1O (stereo not shown) [syringaresinol]				significantly inhibited	significantly mitigated	significantly inhibited	significantly inhibited	mitigated	mitigated	mitigated

Reference: US12521364B2, “Composition for preventing or treating neuropathic pain, containing syringaresinol” (UNIVERSITY-INDUSTRY COOPERATION GROUP OF KYUNG HEE …, priority 2019, dated 2026)
